Data published in patent US20240167075A1, “METHODS FOR ASSAYING ENZYME ACTIVITY” (Regeneron Pharmaceuticals, Inc., priority 2022, published 2024).
Entries after “also recorded” stand apart in the source; their conditions may differ.

B1: β4GALT1 with N352S mutation: missense variant (rs551564683, p.Asn352Ser) in β4GALT1 (protein, UniProt P15291 1-398, looked up, variant N352S)
chain: MRLREPLLSGSAAMPGASLQRACRLLVAVCALHLGVTLVYYLAGRDLSRLPQLVGVSTPLQGGSNSAAAIGQSSGELRTGGARPPPPLGASSQPRPGGDSSPVVDSGPGPASNLTSVPVPHTTALSLPACPEESPLLVGPMLIEFNMPVDLELVAKQNPNVKMGGRYAPRDCVSPHKVAIIIPFRNRQEHLKYWLYYLHPVLQRQQLDYGIYVINQAGDTIFNRAKLLNVGFQEALKDYDYTCFVFSDVDLIPMNDHNAYRCFSQPRHISVAMDKFGFSLPYVQYFGGVSALSKQQFLTINGFPNNYWGWGGEDDDIFNRLVFRGMSISRPNAVVGRCRMIRHSRDKKNEPSPQRFDRIAHTKETMLSDGLNSLTYQVLDVQRYPLYTQITVDIGTPS

Assays:
Type in all cases: biochemical
β4GALT1 [1] = assay: HILIC-FLR-MS based assay of β4GALT1 activity with 2-AB-G0F labeling substrate; conditions: 1.1 pmol B4GALT1, 1.7 nmol UDP-Gal, 10 pmol 2-AB-G0F, room temperature, 0 to 60 minutes; FIG. 8, 12, 13
Description: Specifically, the enzymatic activities were measured using uridine diphosphate galactose (UDP-Gal) as a donor substrate and a labeled glycan (2-AB-G0F) as the labeling substrate. The experiment was carried out over eight different time points.
The enzymatic reaction was initiated by adding 1.1 pmol of B4GALT1 into a mixture of 1.7 nmol UDP-Gal (the glycosyl donor) and 10 pmol of 2-AB-G0F (the glycosyl acceptor), and the mixture was incubated at room temperature for 2, 5, 10, 15, 25, 40, and 60 minutes. The sample representing the initial time point (0 min) was prepared by omitting the enzyme. This HILIC-FLR-MS based method was used to quantitate both the decrease of UDP-Gal and the increase in formation of the products (G1F/G2F).
All samples were analyzed using an Acquity UPLC I-Class coupled with Vion IMS Q-Tof (Waters, Milford, MA, USA). A Waters Acquity UPLC Glycoprotein BEH Amide chromatographic column (300 Å, 150 mm×2.1 mm, 1.7 μm) was used to separate the analytes with a column temperature of 60° C. and a flow rate of 0.5 mL/minute. Mobile phase A was 50 mM ammonium acetate at a pH 4.4, and mobile phase B was acetonitrile. A 5 μL aliquot of each mixture was injected onto the column for HILIC-MS analysis. The sample run time was 12 minutes.
The samples were monitored using a UV detector at a wavelength of 280 nm and fluorescence with excitation at a wavelength of 330 nm and emission at a wavelength of 420 nm. The Waters Vion IMS Q-Tof mass spectrometer was operated in positive mode and the mass spectra were acquired with a m/z range between 600 and 2000. UDP-Gal was quantitated and the data were collected and processed using UNIFI software (Waters).

β4GALT1 [2] = assay: commercial Phosphate Glycosyltransferase Activity kit (R&D Systems), malachite green phosphate detection; conditions: UDP-Gal glycosyl donor, coupling phosphatase; FIG. 4
From the text: The commercial Phosphate Glycosyltransferase Activity kit was purchased from R&D Systems. The principle of the assay along with the materials provided were utilized according to manufacturer's conditions. In brief, a diphosphonucleotide sugar (such as UDP-Gal) is used as a glycosyl donor and mixed with a glycosyl acceptor, a phosphatase, and a glycosyltransferase. Glycosyltransferase activity exposes a phosphate of the glycosyl donor to phosphatase activity, releasing free phosphate. The amount of phosphate present should be directly proportional to the amount of formed glycosylated product. The kit also uses a specific phosphatase to remove an inorganic phosphate quantitatively from UDP. The released inorganic phosphate is subsequently quantitated by sensitive colorimetric malachite green phosphate detecting reagents. The amount of inorganic phosphate released by the coupling phosphatase should be equal to the nucleotide sugar consumed or glycoconjugate product generated. Therefore, the rate of inorganic phosphate products should reflect the kinetics of a glycosyltransferase reaction (specific activity of the enzyme). The steps as performed are outlined in FIG. 3.
To estimate the amount of UDP produced in the enzymatic reaction, a phosphate standard curve was established according to manufacturer's conditions. […]

β4GALT1 [3] = assay: HILIC-UV/MS based assay of β4GALT1 activity (method of Montasser et al.)
From the text: Montasser et al. attempted to assay enzyme activity using a method involving quantification of the β4GALT1 substrate UDP-Gal, by measuring its peak area using hydrophilic interaction chromatography-ultraviolet detection-mass spectroscopy. The method as outlined in Montasser et al. was followed, using HILIC-UV-MS to quantitate the decrease of UDP-Gal as a measure of β4GALT1 activity. In particular, the decrease of UDP-Gal could be measured using UV detection and the corresponding increase of GlcNAc-Gal could be measured using MS.
The glycosyl donor was 1.7 nmol UDP-Gal; the glycosyltransferase was 1.1 pmol β4GALT1; and the glycosyl acceptor was 500 nmol GlcNAc. All samples were analyzed using an Acquity UPLC I-Class coupled with Vion IMS Q-Tof (Waters, Milford, MA, USA). A Waters Acquity UPLC Glycoprotein BEH Amide chromatographic column (300 Å, 150 mm×2.1 mm, 1.7 μm) was used to separate the analytes with a column temperature of 45° C. and a flow rate of 0.2 mL/minute. Mobile phase A was 50 mM ammonium acetate at a pH 7.5, and mobile phase B was 5% (v/v) 25 mM ammonium acetate at a pH 7.5 in acetonitrile. A 1 μL aliquot of each mixture (wildtype and mutant β4GALT1) was injected for analysis.
The difference in activity between the wildtype and mutant β4GALT1 was tested using paired two-sided Student's t-test.

Molecule	fluorescent signal for 2-AB-G0F (labeling substrate) over time (β4GALT1 [1])	signal for the products 2-AB-G1F and 2-AB-G2F over time (β4GALT1 [1])	specific activity (enzyme activity) determined using a commercial kit (β4GALT1 [2])	decrease in UDP-Gal (UV peak area) (β4GALT1 [3]; 1.7 nmol UDP-Gal, 1.1 pmol β4GALT1, 500 nmol GlcNAc, 2, 5, 10, 15, 25, 40, and 60 minutes, FIG. 5)	increase in the amounts of the product (GlcNAc-Gal) over time, MS (β4GALT1 [3]; 2, 5, 10, 15, 25, 40, and 60 minutes, FIG. 6)	activity suggested by decrease in UDP-Gal (β4GALT1 [3]; wildtype compared to mutant, FIG. 5)
Beta-1,4-galactosyltransferase 1 [wildtype β4GALT1]	reduction in the signal; also recorded: declines substantially over time	increase substantially over time	less active than β4GALT1 with N352S mutation	significantly more	significantly more	higher activity
B1	less so	less so				
